Patent US7390806B2, “Antibiotics containing borinic acid complexes and methods of use” (Anacor Pharmaceuticals, Inc., priority 2002, dated 2008)
Values after ≈ are worked out from the molar mass of the structure shown.

How the values were obtained:
[1] = tested on: S. aureus ATCC 29213; assay: MIC determination, S. aureus ATCC 29213; type: cell-based, Staphylococcus aureus; conditions: for MIC S. aureus ATCC 29213: Table 1
[2] = tested on: S. epidermidis ATCC 12228; assay: MIC determination, S. epidermidis ATCC 12228; type: cell-based, Staphylococcus epidermidis; conditions: for MIC S. epidermidis ATCC 12228: Table 1
[3] = tested on: S. pneumoniae ATCC 6301; assay: MIC determination, S. pneumoniae ATCC 6301; type: cell-based, Streptococcus pneumoniae; conditions: for MIC S. pneumoniae ATCC 6301: Table 1
[4] = tested on: E. faecalis ATCC 29212; assay: MIC determination, E. faecalis ATCC 29212; type: cell-based, Enterococcus faecalis; conditions: for MIC E. faecalis ATCC 29212: Table 1
[5] = tested on: E. faecium CT-26; assay: MIC determination, E. faecium CT-26; type: cell-based, Enterococcus faecium; conditions: for MIC E. faecium CT-26: Table 1
[6] = tested on: M. catarrhalis ATCC 25238; assay: MIC determination, M. catarrhalis ATCC 25238; type: cell-based; conditions: for MIC M. catarrhalis ATCC 25238: Table 1

Row | MIC ([1]; Staphylococcus aureus, ATCC29213, Table 1, read-out: MIC S. aureus ATCC 29213) | MIC ([2]; Staphylococcus epidermidis, ATCC12228, Table 1, read-out: MIC S. epidermidis ATCC 12228) | MIC ([3]; Streptococcus pneumoniae, ATCC6301, Table 1, read-out: MIC S. pneumoniae ATCC 6301) | MIC ([4]; Enterococcus faecalis, ATCC29212, Table 1, read-out: MIC E. faecalis ATCC 29212) | MIC ([5]; Enterococcus faecium, CT26, Table 1, read-out: MIC E. faecium CT-26) | MIC ([6]; Moraxella catarrhalis, ATCC25238, Table 1, read-out: MIC M. catarrhalis ATCC 25238) | SMILES | MIC S. aureus ATCC 29213 [1] | MIC S. epidermidis ATCC 12228 [2] | MIC S. pneumoniae ATCC 6301 [3] | MIC E. faecalis ATCC 29212 [4] | MIC E. faecium CT-26 [5] | MIC M. catarrhalis ATCC 25238 [6]
1 |  |  |  |  |  |  | Oc1cccc2cccnc12 [Compound 94, 8-hydroxyquinoline] | 2 micrograms per ml | 1 micrograms per ml | 1 micrograms per ml | 8 micrograms per ml | 4 micrograms per ml | 2 micrograms per ml
2 | 0.5 µg/mL (≈ 1.65 µM) | 8 µg/mL (≈ 26.4 µM) | 8 µg/mL (≈ 26.4 µM) | 64 µg/mL (≈ 211 µM) | 32 µg/mL (≈ 106 µM) | 0.12 µg/mL (≈ 0.396 µM) | Oc1c(Br)cc(Br)c2cccnc12 [Compound 24] |  |  |  |  |  | 
3 |  |  |  |  |  |  | Oc1cccc2cccnc12 [Compound 85, 8-hydroxyquinoline] | 2 micrograms per ml | 1 micrograms per ml | 2 micrograms per ml | 4 micrograms per ml | 4 micrograms per ml | 2 micrograms per ml
4 |  |  |  |  |  |  | Oc1cccc2cccnc12 [Compound 96, 8-hydroxyquinoline] | 2 micrograms per ml | 1 micrograms per ml | 2 micrograms per ml | 8 micrograms per ml | 2 micrograms per ml | 1 micrograms per ml
5 |  |  |  |  |  |  | Oc1cccc2cccnc12 [Compound 82, 8-hydroxyquinoline] | 2 micrograms per ml | 2 micrograms per ml | 2 micrograms per ml | 8 micrograms per ml | 2 micrograms per ml | 4 micrograms per ml
6 |  |  |  |  |  |  | Oc1cccc2cccnc12 [Compound 63, 8-hydroxyquinoline] | 2 micrograms per ml | 1 micrograms per ml | 2 micrograms per ml | 8 micrograms per ml | 4 micrograms per ml | 1 micrograms per ml
7 |  |  |  |  |  |  | Oc1cccc2cccnc12 [Compound 54, 8-hydroxyquinoline] | 2 micrograms per ml | 1 micrograms per ml | 2 micrograms per ml | 8 micrograms per ml | 4 micrograms per ml | 1 micrograms per ml
8 |  |  |  |  |  |  | Oc1cccc2cccnc12 [Compound 81, 8-hydroxyquinoline] | 2 micrograms per ml | 1 micrograms per ml | 2 micrograms per ml | 8 micrograms per ml | 4 micrograms per ml | 2 micrograms per ml
9 |  |  |  |  |  |  | Oc1ccc(F)c2cccnc12 [Compound 34] | 1 micrograms per ml | 2 micrograms per ml | 2 micrograms per ml | 8 micrograms per ml | 4 micrograms per ml | 1 micrograms per ml
10 |  |  |  |  |  |  | Oc1c(Cl)cc(Cl)c2cccnc12 [Compound 71] | 2 micrograms per ml | 2 micrograms per ml | 8 micrograms per ml | 64 micrograms per ml | 4 micrograms per ml | 0.12 micrograms per ml
11 |  |  |  |  |  |  | Oc1cccc2cccnc12 [Compound 86, 8-hydroxyquinoline] | 2 micrograms per ml | 1 micrograms per ml | 2 micrograms per ml | 8 micrograms per ml | 4 micrograms per ml | 2 micrograms per ml
